# Test results reported in patent US6117889A, “7-Azabicyclo-[2.2.1]-heptane and -heptene derivatives as analgesics and anti-inflammatory agents” (priority 1996, dated 2000).
# Read-outs that look alike come from different tables or passages of the source.
# Key:
# [1] = analgesic activity, Straub-Tail assay (Table 4); assay type: in vivo
# From the text: A wide variety of biological assays have been used to evaluate the ability of a compound to act as an analgesic. Any of these known assays can be used to evaluate the analgesic ability of the compounds disclosed herein. The Straub-tail reaction, which is characteristic of opiate alkaloids, has been used as an assay for opiate agonists and antagonists. The assay is described in detail in Br. J. of Pharmacol. 1969, 36, 225. Another accepted assay for analgesic activity is the hot plate analgesia assay, described in J. of Pharmacol. Exp. Therap. 1953, 107, 385. An assay for the evaluation of the ability of a compound to bind to an opiate receptor is described in Mol. Pharmacol. 1974, 10, 868.
# […] Daly et al. J. Am. […] Chem. Soc. 1992, 114, 3475; T. Li, et al. Bioorganic and Medicinal Chemistry Letters 1993, 3, 2759.
# [2] = test system: acetylcholine nicotinic receptor; test: nicotinic receptor binding, [3H]-NMCI radioligand, rat cortex (Table 5)
# Description: 7-aza-bicyclo[2.2.1]-heptanes and -heptenes were evaluated for their ability to bind to the acetylcholine nicotinic receptor using a standard binding assay, e.g. X. Zhang and A. Nordberg, Arch. Pharmacol., 348, 28 (1993); R. E. Middleton and J. B. Cohen, Biochemistry, 30, 6987 (1991), with nicotine sulfate as the reference compound, rat cortex as the tissue substrate, and a [^3 H]-NMCI radioligand.
# [3] = Straub-Tail assay, read-out: ED50
compound,measurement,setting,value
COc1ccc([C@@H]2C[C@H]3CC[C@@H]2N3)cn1 (relative stereo),ED50,[1]; [3],0.75 mg/kg
ClCCN1[C@@H]2CC[C@H]1[C@H](c1ccc(Cl)nc1)C2 (relative stereo),ED50,[1],~0.1 mg/kg
Clc1ccc([C@@H]2C[C@H]3C=C[C@@H]2N3)cn1 (relative stereo),ED50,[1]; [3],< 1 mg/kg
N=CN1C2CCC1C(c1ccc(Cl)nc1)C2 (stereo not drawn),Inhibition %,[2]; testing level 10^-9,49%
same,Inhibition %,[2]; testing level 10^-11,22%
CC(C)(C)Oc1ccc([C@@H]2C[C@H]3CC[C@@H]2N3)cn1 (relative stereo),ED50,[1]; [3],~1 mg/kg
N=CN1C2CCC1C(c1cccnc1)C2 (stereo not drawn),Inhibition %,[2]; testing level 10^-9,5%
CN1[C@@H]2CC[C@H]1[C@H](c1ccc(Cl)nc1)C2 (relative stereo) [drawing 33],ED50,[1]; [3],< 0.01 mg/kg
Clc1ccc([C@@H]2C[C@H]3CC[C@@H]2N3)cn1 (relative stereo),ED50,[1]; Straub-Tail assay,0.01 mg/kg
Clc1ccc([C@@H]2C[C@H]3CC[C@@H]2N3CC2CC2)cn1 (relative stereo),"analgesic activity (Straub-Tail), % at 1000 μg/Kg",[1]; @ 1000 (μg/Kg),100%
Fc1ccc([C@@H]2C[C@H]3CC[C@@H]2N3)cn1 (relative stereo),ED50,[1]; [3],~0.05 mg/kg
Clc1ccc([C@@H]2C[C@H]3CC[C@@H]2N3CCc2ccccc2)cn1 (relative stereo),ED50,[1]; [3],< 1 mg/kg
N=CN1[C@@H]2CC[C@H]1[C@H](c1ccc(Cl)nc1)C2 (relative stereo),"analgesic activity (Straub-Tail), % at 100",[1]; @ 100,99%
C[N+]1(C)C2CCC1C(c1ccc(Cl)nc1)C2 (stereo not drawn),Inhibition %,[2]; testing level 10^-7 M,100%
same,Inhibition %,[2]; testing level 10^-9,49%
c1cncc([C@@H]2C[C@H]3CC[C@@H]2N3)c1 (relative stereo),ED50,[1]; [3],0.25 mg/kg
CN1C2CCC1C(c1ccc(Cl)nc1)C2 (stereo not drawn) [R = CH3],Inhibition %,[2]; testing level 10^-5 M,81%
Clc1ccc(C2CC3CCC2N3)cn1 (stereo not drawn) [R = H],Inhibition %,[2]; testing level 10^-7 M,24%
